Results on one compound are retold here after patent publication US20090176866A1, “Complexes having adjuvant activity” (priority 2004, published 2009).

Each structure is given as a SMILES string.

The subject of one data set is human red blood cells. Description: Red blood cell lysis. Type of data set: cell-based. Particulars: 24 h incubation; 3 donors.
The subject of data set [1] is Leishmania mexicana promastigotes. Nature of the data set: Viability of Leishmania mexicana promastigotes (MTT). In kind it is cell-based. Particulars: 24 h + 24 h MTT at 26° C. Here is the method:
(§1) Leishmania mexicana promastgotes were used for these experiments. They were maintained in Schneider's Drosophila growth medium (Invitrogen) supplemented with 15% fetal calf serum (heat inactivated at 56° C. for 1 hour) and gentamicin (1 mg/100 ml). The parasite concentration was adjusted to 2×10^6 parasites/ml. Doubling dilutions of the test compound were prepared at twice the desired final concentration in growth media. An equal volume of the drug and the parasite suspension were then mixed in a 96 well plate and incubated for 24 h at 26° C. At this time, MTT (5 mg/ml) was added and the plate incubated for a further 24 h at 26° C. The plate was then centrifuged (2000 g, 5 min), the supernatant discarded and the pellet resuspended in 100 μl DMSO. Absorbance was measured at 570 nm using a spectrophotometer. The results were expressed as the percentage viability of the promastigotes with 100% viability being determined using the OD of the untreated, replicating promastigotes in the control wells.

Data set [2] concerns Leishmania donovani promastigotes. Nature of the data set: Viability of Leishmania donovani promastigotes (MTT). Type of data set: cell-based. Particulars: 24 h + 24 h MTT at 26° C. Here is the method:
as §1, with “donovania promastigotes” for “mexicana promastgotes”, “Growth Media 199” for “Drosophila growth medium (Invitrogen)”

Data set [3] relates to intracellular Leishmania mexicana amastigotes. Nature of the data set: Inhibition of intracellular Leishmania mexicana amastigote growth in human monocyte derived macrophages (infection index). In kind it is cell-based. Particulars: 72 h at 32° C. On the procedure:
(§2) Leishmania mexicana amastigotes were used to infect human monocyte derived macrophages that were maintained in RPMI 1640 (Invitrogen) supplemented with 10% human serum (heat inactivated at 56° C. for 1 hour) and 200 IU/ml penicillin and 200 μg/ml streptomycin. The cells were plated at 10^6 cells/ml into Lab-Tek Chamber Slides (Nunc) and incubated at 37° C./5% CO2 for 3 days. The media was then aspirated from the chamber slides and an equal volume of fresh media added back in which the amastigote concentration had been adjusted to give a parasite:cell infection ratio of 5:1. The cells were then incubated at 32° C. for 20 h to enable infection of the macrophages to become established. Media was then aspirated from the chamber slides and replaced with doubling dilutions of the test compound. The cells were then incubated at 32° C. for 72 h. After washing with PBS, the chambers were detached, the slides allowed to dry and then fixed in methanol. Each slide was then stained with Giemsa and examined microscopically. A total of 250 cells were counted to determine the number of infected and uninfected cells.
(§3) The infection index was calculated as the average number of parasites/cell multiplied by the percentage of infected cells.

Data set [4] concerns intracellular Leishmania donovani amastigotes. Nature of the data set: Inhibition of intracellular Leishmania donovani amastigote growth in human monocyte derived macrophages (infection index). In kind it is cell-based. Particulars: 72 h at 32° C. On the procedure:
as §2, with “donovani” for “mexicana”
as §3

The subject of data set [5] is Leishmania donovani amastigotes. Description: Mouse model of visceral leishmaniasis (liver parasite burden). In kind it is in vivo, BALB/c mice. Here is the method: Leishmania donovani strain (MHOM/ET/67/L82) amastigotes were collected from the spleens of heavily infected donor Syrian Hamsters-Mesocritetus auratus. An inoculum containing 7.5-10×10^7 amastigotes/mL was prepared. Female BALB/c mice (20 g) that were specified pathogen free were infected intravenously with 200 μL (equivalent to 1.5-2×10^7 amastigotes) on day 0. The end point of infection was evaluated by microscopic reading on day 14 to check for the level of infection in one mouse, and on day 21 post-infection of Giemsa stained liver impressions to determine the total parasite burden.
The following compounds were administered intravenously according to the following regimens:—
There were 5 animals in each group. […] All drug preparations were filtered using a […] syringe filter. The intravenous volume of injection was 200 μL per injection.
Groups of mice were weighed before and after treatment as a measure of toxicity and the percentage weight change noted. On day 21 after infection (which was 3 days after the completion of treatment), the parasite burden was determined microscopically from methanol fixed liver impression slides stained with 10% Giemsa. The number of amastigotes/500 liver cells were counted microscopically and the results expressed as a percentage of the untreated control.

A further data set concerns visceral leishmaniasis. Particulars: intravenous, daily or every other day, 15-20 infusions at 0.75-1 mg/kg/day; cited from earlier work.

Procedure for human red blood cells: A 2% v/v solution of human red blood cells was prepared in RPMI 1640. […] A 1% solution of Triton X-100 was used as a positive reference for 100% cell lysis. Dextran and poly-L lysine were used as negative and positive controls respectively. An equal volume of the sample and red blood cells were aliquoted into a 96 well microbtre plate and incubated at 37° C. After 1 h and after 24 h, each sample was centrifuged (2,000 g, 10 min) and the supernatant added to a 96 well microtitre plate. The absorbance was measured at 490 nm using a spectrophotometer. The degree of lysis was expressed as a percentage of the 100% lysis caused by Triton X-100.
Lyophilised amphotericin B-PMMA-Na was stored at 4° C. under argon for 4 months. It was also solubilised in 5% dextrose at a concentration of 1 mg/ml and stored at 4° C. for 7 months under argon.
Freshly prepared, clinical grade amphotericin B was used as a reference for the comparison. Incubations were undertaken for 1 h and 6 h.

In the case of `C[C@@H]1[C@H](O)[C@@H](C)/C=C/C=C/C=C/C=C/C=C/C=C/C=C/[C@H](O[C@@H]2O[C@H](C)[C@@H](O)[C@H](N)[C@@H]2O)C[C@@H]2O[C@](O)(C[C@@H](O)C[C@@H](O)[C@H](O)CC[C@@H](O)C[C@@H](O)CC(=O)O[C@H]1C)C[C@H](O)[C@H]2C(=O)O` [clinical grade amphotericin B, amphotericin B], in the data set with human red blood cells, the “red cell lysis (toxicity)” value is 100%. Further, the “90% lethal dose (LD90)” value in data set [1] stood at 1.49 µg/mL; in data set [2], 1.91 µg/mL. The “50% inhibition of intracellular amastigote growth” value came to 0.14 µg/mL in data set [3] and 0.54 µg/mL in data set [4]. In addition, the “90% inhibition of intracellular amastigote growth” value stood at 0.95 µg/mL in data set [3] and 2.31 µg/mL in data set [4]. Besides, the “killing activity of Leishmania donovani amastigotes compared to the controls” value in data set [5] (1 mg/kg i.v. days 14, 16 and 18, liver, day 21, P<0.0001) is recorded as “significant killing activity”. Further, the “anti-leishmanial activities compared with each other” value in data set [5] (clinical grade amphotericin B, Ambisome, amphotericin B-PMAA-Na (2 mg/kg), P<0.05 as printed) is “not significantly different from each other”. Also, the Long-term cure rates in the data set on visceral leishmaniasis was 97%.
